Test results as given in ChEMBL document CHEMBL5532667 (J Med Chem, 2024).
Values after ≈ are worked out from the molar mass of the structure shown. One block for each compound: values may come before it.

Tests used:
[1] = in vivo; conditions: C57BL/6, mouse, iv, 1 mg/kg
[2] = in vivo; conditions: C57BL/6, mouse, iv, 1 mg/kg; remark: listed apart in the source
[3] = in vivo; conditions: C57BL/6, mouse, iv, 1 mg/kg; remark: listed apart in the source
[4] = in vivo; conditions: C57BL/6, mouse, iv, 1 mg/kg; remark: listed apart in the source
[5] = in vivo; conditions: C57BL/6, mouse, iv, 1 mg/kg; remark: listed apart in the source
[6] = in vivo; conditions: C57BL/6, mouse, brain, iv, 1 mg/kg
[7] = target: T1, Thyroid hormone receptor beta (Homo sapiens, UniProt P10828); assay type: cell-based, HEK293T
T1 sequence (P10828 whole entry): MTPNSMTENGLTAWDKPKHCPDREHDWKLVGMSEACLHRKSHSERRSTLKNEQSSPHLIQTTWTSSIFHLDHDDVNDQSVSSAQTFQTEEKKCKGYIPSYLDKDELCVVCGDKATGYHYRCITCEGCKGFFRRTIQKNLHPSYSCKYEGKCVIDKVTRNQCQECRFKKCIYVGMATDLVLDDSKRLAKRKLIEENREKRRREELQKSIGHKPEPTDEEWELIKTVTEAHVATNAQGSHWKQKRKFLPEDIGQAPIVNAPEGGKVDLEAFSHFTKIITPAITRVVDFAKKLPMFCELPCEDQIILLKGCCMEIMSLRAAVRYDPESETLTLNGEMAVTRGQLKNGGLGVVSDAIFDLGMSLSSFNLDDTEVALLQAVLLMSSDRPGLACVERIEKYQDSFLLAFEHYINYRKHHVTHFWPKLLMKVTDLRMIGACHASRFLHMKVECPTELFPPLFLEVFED
Description: Antagonist activity at TRbeta in HEK293T cells assessed as reduction in transcriptional activity incubated for 24 hrs by britelite plus reagent based plate reader assay

[8] = target: T2, Progesterone receptor (Homo sapiens, UniProt P06401); assay type: cell-based, HEK293T
T2 sequence (P06401 whole entry): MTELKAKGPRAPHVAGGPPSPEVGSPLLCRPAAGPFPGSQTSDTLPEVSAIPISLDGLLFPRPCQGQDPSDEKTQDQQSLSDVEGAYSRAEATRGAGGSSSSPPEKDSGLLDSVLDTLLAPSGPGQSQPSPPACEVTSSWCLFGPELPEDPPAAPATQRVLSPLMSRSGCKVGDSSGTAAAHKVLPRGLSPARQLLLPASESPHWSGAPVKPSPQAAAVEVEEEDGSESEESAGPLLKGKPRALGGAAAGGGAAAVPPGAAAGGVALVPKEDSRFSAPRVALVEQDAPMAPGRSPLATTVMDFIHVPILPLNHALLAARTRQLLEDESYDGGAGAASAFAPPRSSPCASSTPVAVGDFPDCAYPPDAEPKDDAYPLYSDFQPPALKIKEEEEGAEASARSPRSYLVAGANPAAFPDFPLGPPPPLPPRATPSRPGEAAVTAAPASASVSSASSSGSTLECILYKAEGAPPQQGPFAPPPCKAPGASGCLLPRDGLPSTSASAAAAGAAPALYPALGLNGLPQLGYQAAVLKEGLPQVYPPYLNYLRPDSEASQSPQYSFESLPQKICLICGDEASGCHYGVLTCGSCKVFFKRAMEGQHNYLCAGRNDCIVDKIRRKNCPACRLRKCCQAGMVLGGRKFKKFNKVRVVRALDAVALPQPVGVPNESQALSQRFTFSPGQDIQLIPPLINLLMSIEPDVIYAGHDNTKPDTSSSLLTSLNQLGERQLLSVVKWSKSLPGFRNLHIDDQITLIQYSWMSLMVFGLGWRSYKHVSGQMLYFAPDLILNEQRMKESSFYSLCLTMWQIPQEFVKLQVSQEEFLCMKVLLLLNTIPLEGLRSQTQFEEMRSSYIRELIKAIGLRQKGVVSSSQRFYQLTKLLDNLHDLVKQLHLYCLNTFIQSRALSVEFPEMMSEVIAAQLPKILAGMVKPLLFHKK
Description: Antagonist activity at PR in HEK293T cells assessed as reduction in transcriptional activity incubated for 24 hrs by britelite plus reagent based plate reader assay

[9] = in vitro; conditions: mouse, nih3t3
Description: Dark toxicity against BALB/c mouse 3T3 cells assessed as reduction in cell viability incubated for 1 hr by neutral red dye based assay

[10] = tested on: NIH3T3; assay: cells; conditions: Mus musculus, BALB/c, NIH3T3, light or radiation study
Description: Phototoxicity against BALB/c mouse 3T3 cells assessed as reduction in cell viability preincubated for 1 hr followed by 5 J/cm2 irradiation and subsequent replacement of medium without compound and measured after 24 hrs by neutral red dye based assay

SMILES: C[C@](O)(CN1CC2CC(C1)N2c1ccc(C#N)cc1F)C(=O)Nc1cnc(C#N)c(C(F)(F)F)c1
half-life at 24 h [1]: 54.6 min
C0 at 24 h [2]: 1.06 µg/mL
Vd at 24 h [3]: 1.35 L/kg
clearance at 24 h [4]: 2.27 L/h/kg
AUC(0-t) at 24 h [5]: 0.444 µg·h/mL
Kp at 24 h [6]: 0.45

IC50 [7]: > 10 µM
IC50 [8]: 3.5 µM
SMILES: C[C@](O)(CN1CC2CC(C1)N2c1ccc(C#N)cc1)C(=O)Nc1cnc(C#N)c(C(F)(F)F)c1

IC50 at 1 h [9]: 45.1 mg/L (≈ 141 µM)
SMILES: CN(C)CCCN1c2ccccc2Sc2ccc(Cl)cc21 [CHLORPROMAZINE]
IC50 [10]: 0.93 mg/L (≈ 2.92 µM)
